The record followed here is patent US20080207450A1, “Method of Substantially Preventing or Inhibiting Summer Bentgrass Decline” (priority 2007, published 2008).

For the experiment, the system named is Creeping bentgrass. In words: Outdoor bentgrass bed exposed to elevated atmospheric carbon dioxide over summer; visual quality and root depth. Format: in vivo, Agrostis stolonifera. Conditions: about 700 ppm carbon dioxide from daylight until dark, July and August. How it is done: In the fall, the inventors established an outdoor bed of bentgrass in Lincoln Parish, La. This region has an average daily high temperature in July and August of 93° F. (www.enlou.com/econ/lincoln_econ.htm). The bed of bentgrass established by the inventors was a randomized block comprising three varieties of Creeping bentgrass: Penn A1 (Agrostis stolonifera ‘Penn A-1’), Penn A2, (Agrostis stolonifera ‘Penn A-2’) and Penn A4 (Agrostis stolonifera ‘Penn A-4’). The bentgrass bed was maintained over the winter. During the following July and August, the inventors constructed a conduit system through which carbon dioxide was pumped over a portion of the bentgrass bed (test zone). The conduit system comprised a plurality of hollow PVC pipes, each pipe having an approximate length of 72 inches and an approximate diameter of ¾ of an inch. Several of the pipes were affixed to each other to form the perimeter of a support platform having a rectangular shape. The remaining pipes were arranged in a parallel fashion and affixed within the support platform. […] The carbon dioxide concentrations in both zones were monitored via a standard, commercially available gas analyzer. At the end of August, both the treated and non-treated areas of the bentgrass were assayed visually for quality and also measured for root-depth.

Turning to `O=C=O` [carbon dioxide], the “length of sample root” value (sample root from test zone, measured at end of August) is “approximately 10.75 inches”. Moreover, the “visual quality of bentgrass” value (test zone, Lincoln Parish, La., assayed at end of August, varieties Penn A1, A2, A4) was “did not experience a loss in quality”.
